Laboratory results reported in patent US20240228504A1, “SUBSTITUTED TRICYCLIC AMIDES, ANALOGUES THEREOF, AND METHODS USING SAME” (Arbutus Biopharma Corporation, priority 2020, published 2024).
pEC50: −log10 of the molar value. Read-outs that look alike come from different tables or passages of the source.

Tested on: HBV rcDNA in HepDE19 cells
Assay: HepDE19 assay with bDNA quantitation of HBV rcDNA
Type: cell-based, hepatitis B virus
Details: for pEC50: inhibition of rcDNA formation, bDNA quantitation, read-out: DE-19bDNA EC50
[1] = Hepatitis B virus, HepDE19, HepDE19 assay

Row | SMILES | pEC50 [1] | pEC50 (HepDE19 assay) | other results
1 | CN(C(=O)c1cccc(Oc2cccc(F)c2)c1)C1CNCc2[nH]c(=O)c3cc(F)c(F)cc3c21 (single isomer, unassigned) [Compound 339, N-(8,9-Difluoro-6-oxo-1,2,3,4,5,6-hexahydrobenzo[c][1,7]naphthyridin-1-yl)-3-(3-fluorophenoxy)-N-methylbenzamide] | 4.60 |  | 
2 | CN(C(=O)c1ccc(F)c(F)c1)[C@@H]1COCc2[nH]c(=O)c3cc(F)c(F)cc3c21 [Compound 92, (S)-N-(8,9-Difluoro-6-oxo-1,4,5,6-tetrahydro-2H-pyrano[3,4-c]isoquinolin-1-yl)-3,4-difluoro-N-methylbenzamide] | 6.55 |  | 
3 | CN(C(=O)c1cc(F)c(Br)c(F)c1)C1CNCc2[nH]c(=O)c3cc(F)ccc3c21 (single isomer, unassigned) [Compound 171, 4-Bromo-3,5-difluoro-N-(8-fluoro-6-oxo-1,2,3,4,5,6-hexahydrobenzo[c][1,7]naphthyridin-1-yl)-N-methylbenzamide] |  | 6.29 | 
4 | CN(C(=O)c1cc2ccccc2[nH]1)C1CN(CCO)Cc2[nH]c(=O)c3cc(F)c(F)cc3c21 (single isomer, unassigned) [Compound 90, N-(8,9-Difluoro-3-(2-hydroxyethyl)-6-oxo-1,2,3,4,5,6-hexahydrobenzo[c][1,7]naphthyridin-1-yl)-N-methyl-1H-indole-2-carboxamide] |  | 6.30 | 
5 | Cc1cccc2[nH]c(C(=O)N(C)C3CNCc4[nH]c(=O)c5cc(F)c(F)cc5c43)cc12 (single isomer, unassigned) [Compound 457, N-(8,9-difluoro-6-oxo-1,2,3,4,5,6-hexahydrobenzo[c][1,7]naphthyridin-1-yl)-N,4-dimethyl-1H-indole-2-carboxamide] |  | 8.00 | 
6 | CN(C(=O)c1cc2c(C(F)F)cccn2c1)C1CNCc2[nH]c(=O)c3cc(F)c(F)cc3c21 (single isomer, unassigned) [Compound 431, N-(8,9-Difluoro-6-oxo-1,2,3,4,5,6-hexahydrobenzo[c][1,7]naphthyridin-1-yl)-8-(difluoromethyl)-N-methylindolizine-2-carboxamide] |  | 8.00 | 
7 | CN(C(=O)c1cc2sc(F)cc2[nH]1)C1COCc2[nH]c(=O)c3cc(F)ccc3c21 (single isomer, unassigned) [Compound 497, 2-fluoro-N-(8-fluoro-6-oxo-1,4,5,6-tetrahydro-2H-pyrano[3,4-c]isoquinolin-1-yl)-N-methyl-4H-thieno[3,2-b]pyrrole-5-carboxamide] |  | 5.92 | 
8 | CN(C(=O)c1ccc(Cl)cc1)[C@@H]1COCc2[nH]c(=O)c3cc(F)c(F)cc3c21 [Compound 99, (S)-4-Chloro-N-(8,9-difluoro-6-oxo-1,4,5,6-tetrahydro-2H-pyrano[3,4-c]isoquinolin-1-yl)-N-methylbenzamide] |  |  | EC50 (Hepatitis B virus, HepDE19, read-out: DE-19bDNA EC50 (μM)): 0.02 µM
9 | CN(C(=O)c1cc2cc(F)ccc2[nH]1)C1COCc2[nH]c(=O)c3cc(F)c(F)cc3c21 (single isomer, unassigned) [Compound 28, N-(8,9-Difluoro-6-oxo-1,4,5,6-tetrahydro-2H-pyrano[3,4-c]isoquinolin-1-yl)-5-fluoro-N-methyl-1H-indole-2-carboxamide] |  | 8.40 | 
10 | O=C(N[C@@H]1COCc2[nH]c(=O)c3cc(F)c(F)cc3c21)c1cc2ccccn2c1 [Compound 148, (S)-N-(8,9-Difluoro-6-oxo-1,4,5,6-tetrahydro-2H-pyrano[3,4-c]isoquinolin-1-yl)indolizine-2-carboxamide] | 6.12 |  | 
11 | CN(C(=O)c1cc(F)c(Cl)c(F)c1)C1CNCc2[nH]c(=O)c3cc(F)c(F)cc3c21 (single isomer, unassigned) [Compound 169, 4-Chloro-N-(8,9-difluoro-6-oxo-1,2,3,4,5,6-hexahydrobenzo[c][1,7]naphthyridin-1-yl)-3,5-difluoro-N-methylbenzamide] |  | 7.40 | 
12 | CN(C(=O)c1cc(F)c(Br)c(F)c1)C1COCc2[nH]c(=O)c3cc(F)ccc3c21 (single isomer, unassigned) [Compound 166, 4-Bromo-3,5-difluoro-N-(8-fluoro-6-oxo-2,4,5,6-tetrahydro-1H-pyrano[3,4-c]isoquinolin-1-yl)-N-methylbenzamide] |  | 5.72 | 
13 | CN(C(=O)c1cc2nc(Cl)ccc2[nH]1)[C@@H]1COCc2[nH]c(=O)c3cc(F)c(F)cc3c21 [Compound 206, (S)-5-Chloro-N-(8,9-difluoro-6-oxo-1,4,5,6-tetrahydro-2H-pyrano[3,4-c]isoquinolin-1-yl)-N-methyl-1H-pyrrolo[3,2-b]pyridine-2-carboxamide] | 6.20 |  | 
14 | CN(C(=O)c1cc2cc(F)c(F)cc2[nH]1)C1CNCc2[nH]c(=O)c3cc(F)c(F)cc3c21 (single isomer, unassigned) [Compound 116, N-(8,9-Difluoro-6-oxo-1,2,3,4,5,6-hexahydrobenzo[c][1,7]naphthyridin-1-yl)-5,6-difluoro-N-methyl-1H-indole-2-carboxamide] |  | 5.89 | 
15 | CN(C(=O)c1cc2ccccc2[nH]1)C1CCCc2[nH]c(=O)c3cc(F)ccc3c21 (single isomer, unassigned) [Compound 476, N-(8-Fluoro-6-oxo-1,2,3,4,5,6-hexahydrophenanthridin-1-yl)-N-methyl-1H-indole-2-carboxamide] |  | 7.70 | 
16 | CN(C(=O)c1ccc(OC(F)(F)F)c(F)c1)[C@@H]1COCc2[nH]c(=O)c3cc(F)c(F)cc3c21 [Compound 136, (S)-N-(8,9-Difluoro-6-oxo-1,4,5,6-tetrahydro-2H-pyrano[3,4-c]isoquinolin-1-yl)-3-fluoro-N-methyl-4-(trifluoromethoxy)benzamide] | 7.40 |  | 
17 | CN(C(=O)c1cc2oc(Cl)cc2[nH]1)[C@@H]1COCc2[nH]c(=O)c3cc(F)c(F)cc3c21 [Compound 332, (S)-2-Chloro-N-(8,9-difluoro-6-oxo-1,4,5,6-tetrahydro-2H-pyrano[3,4-c]isoquinolin-1-yl)-N-methyl-4H-furo[3,2-b]pyrrole-5-carboxamide] | 7.40 |  | 
18 | CN(C(=O)c1ccc(-c2ccc(F)cc2)c(F)c1)[C@@H]1COCc2[nH]c(=O)c3cc(F)c(F)cc3c21 [Compound 262, (S)-N-(8,9-Difluoro-6-oxo-1,4,5,6-tetrahydro-2H-pyrano[3,4-c]isoquinolin-1-yl)-2,4′-difluoro-N-methyl-[1,1′-biphenyl]-4-carboxamide] | 4.76 |  | 
19 | CN(C(=O)c1cc2c(F)cccc2[nH]1)C1COCc2[nH]c(=O)c3cc(F)ccc3c21 (single isomer, unassigned) [Compound 19, 4-Fluoro-N-(8-fluoro-6-oxo-1,4,5,6-tetrahydro-2H-pyrano[3,4-c]isoquinolin-1-yl)-N-methyl-1H-indole-2-carboxamide] |  | 5.82 | 
20 | CN(C(=O)c1ccc(OC(F)F)c(F)c1)[C@@H]1COCc2[nH]c(=O)c3cc(F)c(F)cc3c21 [Compound 153, (S)-N-(8,9-Difluoro-6-oxo-1,4,5,6-tetrahydro-2H-pyrano[3,4-c]isoquinolin-1-yl)-4-(difluoromethoxy)-3-fluoro-N-methylbenzamide] | 6.82 |  | 
21 | CN(C(=O)c1cc2c(F)cccc2[nH]1)C1COCc2[nH]c(=O)c3cc(F)c(F)cc3c21 (single isomer, unassigned) [Compound 24, N-(8,9-Difluoro-6-oxo-1,4,5,6-tetrahydro-2H-pyrano[3,4-c]isoquinolin-1-yl)-4-fluoro-N-methyl-1H-indole-2-carboxamide] |  | 8.40 | 
22 | CN(C(=O)c1ccn2cccc2c1)[C@@H]1COCc2[nH]c(=O)c3cc(F)c(F)cc3c21 [Compound 228, (S)-N-(8,9-Difluoro-6-oxo-1,4,5,6-tetrahydro-2H-pyrano[3,4-c]isoquinolin-1-yl)-N-methylindolizine-7-carboxamide] | 7.22 |  | 
23 | CN(C(=O)c1ccc(C(F)(F)F)c(=O)[nH]1)[C@@H]1COCc2[nH]c(=O)c3cc(F)c(F)cc3c21 [Compound 247, (S)-N-(8,9-Difluoro-6-oxo-1,4,5,6-tetrahydro-2H-pyrano[3,4-c]isoquinolin-1-yl)-N-methyl-6-oxo-5-(trifluoromethyl)-1,6-dihydropyridine-2-carboxamide] | 5.41 |  | 
24 | CN(C(=O)c1cc2sccc2[nH]1)C1COCc2[nH]c(=O)c3cc(F)ccc3c21 (single isomer, unassigned) [Compound 380, N-(8-Fluoro-6-oxo-1,4,5,6-tetrahydro-2H-pyrano[3,4-c]isoquinolin-1-yl)-N-methyl-4H-thieno[3,2-b]pyrrole-5-carboxamide] |  | 6.06 | 
25 | CN(C(=O)c1cc2c(Cl)cc(F)cc2[nH]1)C1CNCc2[nH]c(=O)c3cc(F)c(F)cc3c21 (single isomer, unassigned) [Compound 461, 4-chloro-N-(8,9-difluoro-6-oxo-1,2,3,4,5,6-hexahydrobenzo[c][1,7]naphthyridin-1-yl)-6-fluoro-N-methyl-1H-indole-2-carboxamide] |  | 7.52 | 
26 | CN(C(=O)c1cc2cc(F)c(C(F)F)cc2[nH]1)[C@@H]1COC(=O)c2[nH]c(=O)c3cc(F)c(F)cc3c21 [Compound 478, (S)-N-(8,9-Difluoro-4,6-dioxo-1,4,5,6-tetrahydro-2H-pyrano[3,4-c]isoquinolin-1-yl)-6-(difluoromethyl)-5-fluoro-N-methyl-1H-indole-2-carboxamide] | 8.00 |  | 
27 | CN(C(=O)c1ccc2cc(C(F)(F)F)cn2c1)[C@@H]1COCc2[nH]c(=O)c3cc(F)c(F)cc3c21 [Compound 311, (S)-N-(8,9-Difluoro-6-oxo-1,4,5,6-tetrahydro-2H-pyrano[3,4-c]isoquinolin-1-yl)-N-methyl-2-(trifluoromethyl)indolizine-6-carboxamide] | 6.85 |  | 
28 | CN(C(=O)C1Cc2c(F)cc(F)cc2N1)C1COCc2[nH]c(=O)c3cc(F)c(F)cc3c21 (centres unmarked) [Compound 13, N-(8,9-Difluoro-6-oxo-1,4,5,6-tetrahydro-2H-pyrano[3,4-c]isoquinolin-1-yl)-4,6-difluoro-N-methylindoline-2-carboxamide] |  | 4.92 | 
29 | CN(C(=O)c1cc2cc(C#N)ccc2[nH]1)C1COCc2[nH]c(=O)c3cc(F)ccc3c21 (single isomer, unassigned) [Compound 397, 5-Cyano-N-(8-fluoro-6-oxo-1,4,5,6-tetrahydro-2H-pyrano[3,4-c]isoquinolin-1-yl)-N-methyl-1H-indole-2-carboxamide] |  | 4.77 | 
